Reference: ChEMBL document CHEMBL1201862, “PubChem BioAssay data set” (2004)
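Cultured in 96-well plates, cells were exposed to test compound for 48 hours across five concentrations. Abbreviation: GI50, concentration required for 50% inhibition of growth.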 The source made the active and inactive calls. Rule as the data show it: active = GI50 up to about 1.1 µM and inactive = higher.

Assays:
Test in all cases: NCI anticancer screen, dose series, 48 h
SW-620 = test system: SW-620
SNB-19 = test system: SNB-19
UACC-62 = test system: UACC-62
T47D = test system: T47D
COLO 205 = test system: COLO 205
MCF7 = test system: MCF7
SK-MEL-28 = test system: SK-MEL-28
NCI-H226 = test system: NCI-H226
NCI-H522 = test system: NCI-H522
NCI/ADR-RES = test system: NCI/ADR-RES
IGROV-1 = test system: IGROV-1
SN12C = test system: SN12C
A498 = test system: A498
OVCAR-4 = test system: OVCAR-4
M14 = test system: M14
Hs-578T = test system: Hs-578T
RPMI-8226 = test system: RPMI-8226
KM12 = test system: KM12
NCI-H23 = test system: NCI-H23
786-0 = test system: 786-0

| SMILES | GI50 (SW-620) | GI50 (SNB-19) | GI50 (UACC-62) | GI50 (T47D) | GI50 (COLO 205) | GI50 (MCF7) | GI50 (SK-MEL-28) | GI50 (NCI-H226) | GI50 (NCI-H522) | GI50 (NCI/ADR-RES) | GI50 (IGROV-1) | GI50 (SN12C) | GI50 (A498) | GI50 (OVCAR-4) | GI50 (M14) | GI50 (Hs-578T) | GI50 (RPMI-8226) | GI50 (KM12) | GI50 (NCI-H23) | GI50 (786-0) |
| --- | --- | --- | --- | --- | --- | --- | --- | --- | --- | --- | --- | --- | --- | --- | --- | --- | --- | --- | --- | --- |
| COC(=O)C1C2OC(C)(C)OC2CN1S(=O)(=O)c1ccc(C)cc1 (stereo not given) | > 100 µM (inactive) | > 100 µM (inactive) | > 100 µM (inactive) | > 100 µM (inactive) | > 100 µM (inactive) | > 100 µM (inactive) | > 100 µM (inactive) | 0.0527 µM (active) | > 100 µM (inactive) | > 100 µM (inactive) | 14.5 µM (inactive) | > 100 µM (inactive) | > 100 µM (inactive) | > 100 µM (inactive) | > 100 µM (inactive) | > 100 µM (inactive) | > 100 µM (inactive) | > 100 µM (inactive) | > 100 µM (inactive) | > 100 µM (inactive) |
| COc1ccc2c3c1O[C@H](c1ccc(O)cc1)[C@H]3[N+](C)(C)CC2 | > 100 µM (inactive) | 49.2 µM (inactive) | > 100 µM (inactive) | > 100 µM (inactive) | 68.4 µM (inactive) | > 100 µM (inactive) | > 100 µM (inactive) | > 100 µM (inactive) | 42.8 µM (inactive) | > 100 µM (inactive) | > 100 µM (inactive) | > 100 µM (inactive) | > 100 µM (inactive) | 5.51 µM (inactive) | > 100 µM (inactive) | > 100 µM (inactive) | 47.4 µM (inactive) | > 100 µM (inactive) | 46.6 µM (inactive) | > 100 µM (inactive) |
| Cc1cc(Nc2ccc(/N=N/c3ccc(O)c4ncccc34)cc2)nc(C)n1 | 13.5 µM (inactive) | 8.53 µM (inactive) | 6.38 µM (inactive) | 6.01 µM (inactive) | 20.8 µM (inactive) | 11 µM (inactive) | 11.2 µM (inactive) | 18.3 µM (inactive) | 10.7 µM (inactive) | 6.28 µM (inactive) | 8.57 µM (inactive) | 10.4 µM (inactive) | 21.6 µM (inactive) | 18 µM (inactive) | 12.6 µM (inactive) | 7.03 µM (inactive) | 5.61 µM (inactive) | 12.4 µM (inactive) | 7.24 µM (inactive) | 12.6 µM (inactive) |
| CC1CC[C@@]2(OC1)OC1C[C@H]3[C@@H]4CC=C5CC(OC6OC(CO)C(OC7OC(CO)C(O)C(OC8OCC(O)C(O)C8O)C7OC7OC(CO)C(O)C(O)C7O)C(O)C6O)CCC5(C)[C@H]4CCC3(C)C1[C@@H]2C (stereo not given in full) | 3.98 µM (inactive) | 10.3 µM (inactive) | 21.7 µM (inactive) | 5.71 µM (inactive) | 4.59 µM (inactive) | 6.3 µM (inactive) | 12.3 µM (inactive) | 13.3 µM (inactive) | 4.72 µM (inactive) | 5.97 µM (inactive) | 3.94 µM (inactive) | 4.58 µM (inactive) | 4.69 µM (inactive) | 6.58 µM (inactive) | 11.2 µM (inactive) | 4.66 µM (inactive) | 6.81 µM (inactive) | 5.32 µM (inactive) | 5.64 µM (inactive) | 5.9 µM (inactive) |
| CN(C)CCN1C(=O)c2cccc3cc(N)cc(c23)C1=O [AMONAFIDE] | 1.65 µM (inactive) | 4.21 µM (inactive) | 3.38 µM (inactive) | 4.5 µM (inactive) | 1.55 µM (inactive) | 1.87 µM (inactive) | 6.84 µM (inactive) | 2.4 µM (inactive) | 3.71 µM (inactive) | 3.33 µM (inactive) | 3.49 µM (inactive) | 3.19 µM (inactive) | 3.58 µM (inactive) | 4.71 µM (inactive) | 3.72 µM (inactive) | 6.21 µM (inactive) | 2.49 µM (inactive) | 4.37 µM (inactive) | 3.91 µM (inactive) | 2.2 µM (inactive) |
